Experimental data as given in patent US9186360B2, “Treatment of respiratory disorders using TRPA1 antagonists” (GLENMARK PHARMACEUTICALS S.A., priority 2011, dated 2015).

Experiments:
Format in all cases: cell-based
[1] = target: human TRPA1 (Homo sapiens (Human), UniProt O75762); assay: 45Calcium uptake assay, AITC induced, human TRPA1 expressing CHO cells; conditions: AITC 30 micromolar, read-out: IC50 values hTRPA1
Procedure: As contemplated herein, the IC50 value is measured by the following method. The inhibition of TRPA1 receptor activation is measured as inhibition of allylisothiocyanate (AITC) induced cellular uptake of radioactive calcium. Test solution of test compound is prepared in a suitable solvent using appropriate method. Human TRPA1 expressing CHO cells are grown in suitable medium. Cells are treated with test compounds followed by addition of AITC. Cells are washed and lysed. Radioactivity in the lysate is measured in Packard Top count after addition of liquid scintillant. The concentration response curves for compounds are plotted as a % of maximal response obtained in the absence of test antagonist, and the IC50 values are calculated from such concentration response curve by nonlinear regression analysis using GraphPad PRISM software.
The illustrative TRPA1 antagonists of the present invention were screened for TRPA1 activity according to a modified procedure described in Tóth, A. et al., Life Sciences 2003, 73, 487-498. The screening of the compounds can be carried out by other methods and procedures known to persons skilled in the art.
Screening for TRPA1 Antagonist Using the 45Calcium Uptake Assay:
The inhibition of TRPA1 receptor activation was measured as inhibition of allylisothiocyanate (AITC) induced cellular uptake of radioactive calcium. Test compounds were dissolved in DMSO to prepare 10 mM stock solution and then diluted using plain medium with 0.1% BSA and 1.8 mM CaCl2 to get desired concentration. Final concentration of DMSO in the reaction was 0.5% (v/v). Human TRPA1 expressing CHO cells were grown in F-12 DMEM medium with 10% FBS, 1% penicillin-streptomycin solution, and 400 μg/ml of G-418. Cells were seeded 24 h prior to the assay in 96 well plates so as to get ˜50,000 cells per well on the day of experiment. Cells were treated with test compounds for 10 min followed by addition of AITC at a final concentration of 30 micromolar and 5 μCi/ml 45Ca+2 for 3 min at 25° C. Cells were washed and lysed using buffer containing 1% Triton X-100, 0.1% deoxycholate and 0.1% SDS. Radioactivity in the lysate was measured in Packard Top count after addition of liquid scintillant.
Concentration response curves were plotted as a % of maximal response obtained in the absence of test antagonist. IC50 value was calculated from concentration response curve by nonlinear regression analysis using GraphPad PRISM software.

[2] = target: human TRPV1 (Homo sapiens (Human), UniProt Q8NER1); assay: Radiometric calcium selectivity assay, CHO cells expressing human TRPV1 (capsaicin); conditions: read-out: IC50 values hTRPV1
Sequence of human TRPV1 (Q8NER1 whole entry): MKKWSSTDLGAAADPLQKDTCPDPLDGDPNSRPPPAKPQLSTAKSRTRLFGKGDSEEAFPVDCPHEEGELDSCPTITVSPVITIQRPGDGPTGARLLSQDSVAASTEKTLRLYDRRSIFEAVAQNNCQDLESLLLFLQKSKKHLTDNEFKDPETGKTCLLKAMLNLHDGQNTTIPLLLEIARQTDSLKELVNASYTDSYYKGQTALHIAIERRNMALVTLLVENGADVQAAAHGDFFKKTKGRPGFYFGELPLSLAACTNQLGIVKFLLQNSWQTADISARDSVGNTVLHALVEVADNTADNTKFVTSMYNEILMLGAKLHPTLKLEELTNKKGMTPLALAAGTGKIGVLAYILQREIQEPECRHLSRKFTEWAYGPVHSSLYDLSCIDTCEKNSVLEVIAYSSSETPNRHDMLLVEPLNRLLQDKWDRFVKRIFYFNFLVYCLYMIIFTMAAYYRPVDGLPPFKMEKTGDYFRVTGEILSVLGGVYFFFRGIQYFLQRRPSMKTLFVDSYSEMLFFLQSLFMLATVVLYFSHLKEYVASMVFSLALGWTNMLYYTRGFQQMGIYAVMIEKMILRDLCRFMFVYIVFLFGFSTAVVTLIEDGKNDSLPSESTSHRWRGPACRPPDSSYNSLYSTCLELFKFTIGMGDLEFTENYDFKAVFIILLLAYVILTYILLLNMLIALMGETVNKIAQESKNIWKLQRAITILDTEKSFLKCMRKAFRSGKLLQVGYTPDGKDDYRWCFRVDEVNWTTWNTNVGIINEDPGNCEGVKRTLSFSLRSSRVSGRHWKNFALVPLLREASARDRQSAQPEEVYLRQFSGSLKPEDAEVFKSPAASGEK
Procedure: (§1) For selectivity screening, CHO cells stably expressing human TRPV1, human TRPV3, human TRPV4, or human TRPM8 were generated in-house and maintained in DMEM F-12 supplemented with 10% FBS and G418. All the cell types were cultured at 37° C. in humidified air containing 5% CO2. Radiometric calcium assay was performed as described above with some minor modifications. Assay was carried out in total volume of 200 μl at 30° C. (for TRPV1), 32° C. (for TRPV3) and 25° C. (for TRPV4 and TRPM8). Agonists used for selectivity screening of the different TRPs are: Capsaicin for TRPV1,2-aminoethoxydiphenyl borate for TRPV3, 4α-phorbol 12,13-didecanoate for TRPV4 and Icilin for TRPM8. After 2-5 minutes of agonist treatment, drug was washed and lysed in lysis buffer as mentioned above. Radioactivity in the lysate was measured in Packard Top count after addition of liquid scintillant.

[3] = target: human TRPV3 (Homo sapiens (Human), UniProt Q8NET8); assay: Radiometric calcium selectivity assay, CHO cells expressing human TRPV3 (2-aminoethoxydiphenyl borate); conditions: read-out: IC50 values hTRPV3
Sequence of human TRPV3 (Q8NET8 whole entry): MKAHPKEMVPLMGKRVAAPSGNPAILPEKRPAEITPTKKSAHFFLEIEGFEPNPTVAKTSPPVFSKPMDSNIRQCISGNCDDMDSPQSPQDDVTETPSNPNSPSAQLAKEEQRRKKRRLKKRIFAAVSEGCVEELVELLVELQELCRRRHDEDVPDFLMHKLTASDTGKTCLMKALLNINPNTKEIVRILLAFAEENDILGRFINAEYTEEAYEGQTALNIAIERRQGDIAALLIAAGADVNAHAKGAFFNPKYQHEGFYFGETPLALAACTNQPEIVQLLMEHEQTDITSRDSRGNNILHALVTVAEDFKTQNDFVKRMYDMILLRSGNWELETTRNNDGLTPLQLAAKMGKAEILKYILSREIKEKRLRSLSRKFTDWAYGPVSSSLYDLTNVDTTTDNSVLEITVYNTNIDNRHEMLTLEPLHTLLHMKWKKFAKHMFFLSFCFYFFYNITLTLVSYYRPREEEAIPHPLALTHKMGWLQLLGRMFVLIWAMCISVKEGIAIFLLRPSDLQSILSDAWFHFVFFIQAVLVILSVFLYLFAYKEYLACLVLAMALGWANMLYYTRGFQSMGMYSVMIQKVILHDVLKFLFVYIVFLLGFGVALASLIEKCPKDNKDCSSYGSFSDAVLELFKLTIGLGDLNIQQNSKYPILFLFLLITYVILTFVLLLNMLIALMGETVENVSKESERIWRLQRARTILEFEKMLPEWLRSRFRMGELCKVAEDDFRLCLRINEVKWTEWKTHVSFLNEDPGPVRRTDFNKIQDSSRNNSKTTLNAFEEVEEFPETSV
Procedure: as §1

[4] = target: human TRPM8 (Homo sapiens (Human), UniProt Q7Z2W7); assay: Radiometric calcium selectivity assay, CHO cells expressing human TRPM8 (icilin); conditions: read-out: IC50 values hTRPM8
Sequence of human TRPM8 (Q7Z2W7 whole entry): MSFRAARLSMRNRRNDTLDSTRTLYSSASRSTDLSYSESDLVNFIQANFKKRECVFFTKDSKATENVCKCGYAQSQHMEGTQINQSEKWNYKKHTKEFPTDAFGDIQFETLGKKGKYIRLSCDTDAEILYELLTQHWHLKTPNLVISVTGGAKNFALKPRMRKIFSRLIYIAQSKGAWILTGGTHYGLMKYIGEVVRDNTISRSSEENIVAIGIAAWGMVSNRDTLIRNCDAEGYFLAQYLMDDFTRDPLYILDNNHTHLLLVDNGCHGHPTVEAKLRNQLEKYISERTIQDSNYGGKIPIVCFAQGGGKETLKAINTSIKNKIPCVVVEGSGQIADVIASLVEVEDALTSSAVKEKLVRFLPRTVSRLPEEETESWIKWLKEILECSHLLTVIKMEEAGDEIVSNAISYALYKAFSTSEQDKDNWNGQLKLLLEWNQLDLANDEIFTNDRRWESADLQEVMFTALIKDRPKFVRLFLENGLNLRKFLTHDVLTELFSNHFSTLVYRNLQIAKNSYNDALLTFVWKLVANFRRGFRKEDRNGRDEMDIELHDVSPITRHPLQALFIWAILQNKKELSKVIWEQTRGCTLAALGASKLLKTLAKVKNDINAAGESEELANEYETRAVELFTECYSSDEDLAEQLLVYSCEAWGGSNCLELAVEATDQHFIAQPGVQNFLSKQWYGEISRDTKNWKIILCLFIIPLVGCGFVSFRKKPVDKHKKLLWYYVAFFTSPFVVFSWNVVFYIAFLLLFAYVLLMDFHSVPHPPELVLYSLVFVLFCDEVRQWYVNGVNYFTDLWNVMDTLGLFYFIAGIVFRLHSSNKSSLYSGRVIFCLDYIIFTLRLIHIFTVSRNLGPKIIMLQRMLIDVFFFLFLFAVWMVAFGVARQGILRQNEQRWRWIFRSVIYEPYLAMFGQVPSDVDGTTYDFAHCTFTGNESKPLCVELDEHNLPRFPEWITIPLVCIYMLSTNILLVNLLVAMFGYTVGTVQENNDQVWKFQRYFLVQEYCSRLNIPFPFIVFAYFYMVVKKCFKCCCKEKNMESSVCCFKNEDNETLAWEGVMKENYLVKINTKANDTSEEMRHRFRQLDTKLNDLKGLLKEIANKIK
Procedure: as §1

[5] = target: human TRPV4 (Homo sapiens (Human), UniProt Q9HBA0); assay: Radiometric calcium selectivity assay, CHO cells expressing human TRPV4 (4α-phorbol 12,13-didecanoate); conditions: read-out: IC50 values hTRPV4
Sequence of human TRPV4 (Q9HBA0 whole entry): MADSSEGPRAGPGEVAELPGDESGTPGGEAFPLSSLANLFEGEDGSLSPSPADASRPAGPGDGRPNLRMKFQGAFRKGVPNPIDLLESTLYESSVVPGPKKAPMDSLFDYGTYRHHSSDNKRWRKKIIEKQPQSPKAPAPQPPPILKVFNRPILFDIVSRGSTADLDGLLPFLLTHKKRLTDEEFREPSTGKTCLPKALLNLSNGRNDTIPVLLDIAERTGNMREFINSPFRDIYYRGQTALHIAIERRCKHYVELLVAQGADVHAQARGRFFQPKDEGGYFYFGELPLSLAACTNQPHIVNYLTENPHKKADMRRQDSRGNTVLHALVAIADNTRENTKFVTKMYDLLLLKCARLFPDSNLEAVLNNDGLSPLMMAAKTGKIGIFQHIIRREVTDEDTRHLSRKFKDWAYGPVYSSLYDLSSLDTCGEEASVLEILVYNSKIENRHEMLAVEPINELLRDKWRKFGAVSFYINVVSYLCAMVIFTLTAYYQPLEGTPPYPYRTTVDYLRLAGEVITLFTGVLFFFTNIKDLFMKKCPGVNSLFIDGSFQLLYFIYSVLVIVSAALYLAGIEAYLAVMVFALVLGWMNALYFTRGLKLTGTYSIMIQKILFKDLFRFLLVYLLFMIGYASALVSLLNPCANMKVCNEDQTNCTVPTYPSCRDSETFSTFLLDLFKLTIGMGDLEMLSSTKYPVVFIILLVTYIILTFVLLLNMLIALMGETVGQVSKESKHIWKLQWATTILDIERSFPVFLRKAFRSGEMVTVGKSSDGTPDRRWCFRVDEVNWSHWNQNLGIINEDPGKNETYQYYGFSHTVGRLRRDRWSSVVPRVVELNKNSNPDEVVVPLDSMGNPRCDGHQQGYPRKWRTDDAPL
Procedure: as §1

Sequence of human TRPA1 (O75762 whole entry): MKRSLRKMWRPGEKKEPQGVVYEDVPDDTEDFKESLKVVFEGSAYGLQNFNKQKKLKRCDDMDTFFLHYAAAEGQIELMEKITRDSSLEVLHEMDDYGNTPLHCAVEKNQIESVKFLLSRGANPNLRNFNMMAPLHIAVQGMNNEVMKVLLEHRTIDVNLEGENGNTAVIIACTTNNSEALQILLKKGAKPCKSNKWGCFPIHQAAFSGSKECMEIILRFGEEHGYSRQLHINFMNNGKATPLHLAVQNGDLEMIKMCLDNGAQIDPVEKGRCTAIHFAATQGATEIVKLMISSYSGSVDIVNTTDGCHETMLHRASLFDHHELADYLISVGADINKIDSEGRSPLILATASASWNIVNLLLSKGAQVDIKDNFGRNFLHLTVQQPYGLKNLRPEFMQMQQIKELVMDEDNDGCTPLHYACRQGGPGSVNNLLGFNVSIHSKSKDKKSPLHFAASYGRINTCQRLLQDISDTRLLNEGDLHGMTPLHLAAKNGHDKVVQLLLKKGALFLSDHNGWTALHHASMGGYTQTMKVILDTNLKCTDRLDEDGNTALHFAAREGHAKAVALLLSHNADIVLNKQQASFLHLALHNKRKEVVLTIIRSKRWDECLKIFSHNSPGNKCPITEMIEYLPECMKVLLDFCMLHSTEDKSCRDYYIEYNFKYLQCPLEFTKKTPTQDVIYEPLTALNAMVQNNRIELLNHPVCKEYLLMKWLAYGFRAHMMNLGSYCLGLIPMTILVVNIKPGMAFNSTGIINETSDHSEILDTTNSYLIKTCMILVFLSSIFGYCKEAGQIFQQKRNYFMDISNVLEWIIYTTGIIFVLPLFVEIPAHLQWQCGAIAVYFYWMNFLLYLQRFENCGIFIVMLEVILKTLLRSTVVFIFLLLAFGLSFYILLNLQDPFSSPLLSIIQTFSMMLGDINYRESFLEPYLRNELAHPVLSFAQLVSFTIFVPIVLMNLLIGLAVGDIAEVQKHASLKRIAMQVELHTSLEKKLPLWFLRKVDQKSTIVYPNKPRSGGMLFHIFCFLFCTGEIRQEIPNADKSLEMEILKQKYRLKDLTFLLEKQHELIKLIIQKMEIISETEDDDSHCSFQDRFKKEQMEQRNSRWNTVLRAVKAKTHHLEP

Row | SMILES | IC50 [1] [µM] | IC50 [2] [µM] | IC50 [3] [µM] | IC50 [4] [µM] | IC50 [5] [µM]
1 | Cn1c(=O)c2c(CC(=O)Nc3nc(-c4ccc(OC(F)(F)F)c(F)c4)cs3)cccc2n(C)c1=O [Compound 29] | 0.0114 | > 10 | > 1 | > 10 | > 10
2 | Cn1c(=O)c2c(CC(=O)Nc3nc(-c4ccc(OC(F)F)c(Cl)c4)cs3)cccc2n(C)c1=O [Compound 30] | 0.034 | > 10 | > 10 | > 10 | > 10
3 | Cn1c(=O)c2c(CC(=O)Nc3nc(-c4ccc(F)c(C(F)(F)F)c4F)cs3)cccc2n(C)c1=O [Compound 31] | 0.0173 | > 10 | > 10 | > 10 | > 10
4 | Cn1c(=O)c2c(CC(=O)Nc3nc(-c4cc(F)c(OCC(F)(F)F)c(F)c4)cs3)cccc2n(C)c1=O [Compound 32] | 0.00596 | > 10 | > 10 | > 10 | > 1
5 | Cn1c(=O)c2c(CC(=O)Nc3nc(-c4cc(F)c(C(F)(F)F)c(F)c4)cs3)cccc2n(C)c1=O [Compound 33] | 0.00537 | > 10 | > 10 | > 10 | < 1
6 | Cn1c(=O)c2c(ccn2CC(=O)Nc2nc(-c3ccc(OC(F)(F)F)cc3)cs2)n(C)c1=O [Compound 34] | 0.0385 | > 10 | > 10 | > 10 | > 10
7 | Cn1c(=O)c2c(ccn2CC(=O)Nc2nc(-c3cc(Cl)c(OCCC(F)(F)F)c(Cl)c3)cs2)n(C)c1=O [Compound 35] | 0.0181 | > 10 | > 10 | > 10 | > 10
8 | Cn1c(=O)c2c(ccn2CC(=O)Nc2nc(-c3ccc(C(F)(F)F)c(F)c3)cs2)n(C)c1=O [Compound 36] | 0.0499 | > 10 | > 10 | > 10 | > 10
9 | Cn1c(=O)c2c(cnn2CC(=O)Nc2nc(-c3cc(Cl)c(OCC(C)(C)C)c(Cl)c3)cs2)n(C)c1=O [Compound 37] | 0.0123 | > 10 | > 10 | > 10 | > 10
10 | Cn1nc2c(c1CC(=O)Nc1nc(-c3ccc(C(F)(F)F)c(F)c3)cs1)c(=O)n(C)c(=O)n2C [Compound 38] | 0.0159 | > 10 | > 10 | > 10 | > 1
11 | Cn1nc2c(c1CC(=O)Nc1nc(-c3ccc(C(F)(F)F)cc3)cs1)c(=O)n(C)c(=O)n2C [Compound 39] | 0.0266 | > 10 | > 10 | > 10 | > 1
12 | Cn1c(=O)c2c(cnn2CC(=O)Nc2nc(-c3cc(F)c(OCC(C)(C)C)c(F)c3)cs2)n(C)c1=O [Compound 40] | 0.0228 | > 10 | > 10 | > 10 | > 10
13 | Cn1nc2c(c1CC(=O)Nc1nc(-c3ccc(OC(F)(F)F)c(F)c3)cs1)c(=O)n(C)c(=O)n2C [Compound 41] | 0.011 | > 10 | > 10 | > 10 | > 1
14 | Cn1c(=O)c2c(cnn2CC(=O)Nc2nc(-c3cc(F)c(OCC(C)(C)C)c(Cl)c3)cs2)n(C)c1=O [Compound 42] | 0.0114 | > 10 | > 10 | > 10 | > 10
15 | Cn1c(=O)c2c(cnn2CC(=O)Nc2nc(-c3cc(F)c(OCC4CCC4)c(F)c3)cs2)n(C)c1=O [Compound 43] | 0.0184 | > 10 | > 10 | > 10 | > 1
16 | Cn1c(=O)c2c(cnn2CC(=O)Nc2nc(-c3ccc(OCC(C)(C)C)c(F)c3)cs2)n(C)c1=O [Compound 45] | 0.0264 | > 10 | > 1 | > 10 | > 1

Row | SMILES | IC50 [1] [µM] | IC50 [2] [µM] | IC50 [3] [µM] | IC50 [4] [µM] | IC50 [5] [µM]
17 | CC(C)c1sc2c(c1CC(=O)Nc1nc(-c3ccc(C(F)(F)F)c(F)c3)cs1)c(=O)n(C)c(=O)n2C [Compound 46] | 0.0413 | > 10 | > 10 | > 1 | > 10
18 | Cc1sc2c(c1CC(=O)Nc1nc(-c3ccc(Cl)c(Cl)c3)cs1)c(=O)n(C)c(=O)n2C [Compound 47] | 0.0336 | > 10 | > 10 | > 10 | > 1
19 | CCc1sc2c(c1CC(=O)Nc1nc(-c3cc(F)c(OC(F)F)c(F)c3)cs1)c(=O)n(C)c(=O)n2C [Compound 48] | 0.0181 | > 10 | > 10 | > 10 | > 10
20 | CCc1sc2c(c1CC(=O)Nc1nc(-c3cc(F)c(OCC(F)(F)F)c(F)c3)cs1)c(=O)n(C)c(=O)n2C [Compound 49] | 0.00398 | > 10 | > 10 | > 10 | > 10
21 | CCc1sc2c(c1CC(=O)Nc1nc(-c3ccc(C(F)(F)F)c(F)c3)cs1)c(=O)n(C)c(=O)n2C [Compound 50] | 0.0167 | > 10 | > 1 | > 10 | 8.89
22 | CC(C)COc1c(F)cc(-c2csc(NC(=O)Cc3coc4c3c(=O)n(C)c(=O)n4C)n2)cc1F [Compound 53] | 0.0182 | > 10 | > 10 | > 10 | > 1
23 | Cn1c(=O)c2c(CC(=O)Nc3nc(-c4ccc(C(F)(F)F)c(F)c4)cs3)coc2n(C)c1=O [Compound 54] | 0.0177 | > 10 | > 1 | > 10 | > 1
24 | Cn1c(=O)c2c(CC(=O)Nc3nc(-c4cc(F)cc(C(F)(F)F)c4)cs3)coc2n(C)c1=O [Compound 55] | 0.00215 | > 10 | > 1 | > 10 | > 1
25 | Cn1c(=O)c2c(CC(=O)Nc3nc(-c4cc(F)c(CCC(F)(F)F)c(F)c4)cs3)coc2n(C)c1=O [Compound 56] | 0.00338 | > 10 | > 10 | > 10 | > 1
26 | Cn1c(=O)c2c(CC(=O)Nc3nc(-c4cc(Cl)c(OCC(F)(F)F)c(Cl)c4)cs3)coc2n(C)c1=O [Compound 57] | 0.00145 | > 10 | > 10 | > 10 | > 1
27 | Cn1c(=O)c2c(CC(=O)Nc3nc(-c4ccc(F)c(C(F)(F)F)c4)cs3)coc2n(C)c1=O [Compound 58] | 0.0119 | > 10 | > 1 | > 10 | > 1
28 | Cn1c(=O)c2c(CC(=O)Nc3nc(-c4cccc(C(F)(F)F)c4F)cs3)coc2n(C)c1=O [Compound 59] | 0.00221 | > 10 | > 1 | > 10 | 2.83
29 | Cn1c(=O)c2c(CC(=O)Nc3nc(-c4cc(F)c(OCC(F)(F)F)c(Cl)c4)cs3)coc2n(C)c1=O [Compound 60] | 0.00354 | > 10 | > 10 | > 10 | > 1
30 | Cc1oc2c(c1CC(=O)Nc1nc(-c3cc(F)cc(C(F)(F)F)c3)cs1)c(=O)n(C)c(=O)n2C [Compound 61] | 0.00293 | > 10 | > 10 | > 10 | > 10
31 | Cc1oc2c(c1CC(=O)Nc1nc(-c3ccc(Cl)c(OC(F)(F)F)c3)cs1)c(=O)n(C)c(=O)n2C [Compound 63] | 0.00904 | > 10 | > 1 | > 10 | > 10
